Measured values reported in patent US20100279942A1, “METHODS FOR TREATING MOTOR NEURON DISEASE” (priority 2004, published 2010).

Tests used:
[1] = test system: F11 cells transformed with SOD1 mutant (A4T-SOD1, G85R-SOD1, G93R-SOD1) genes; assay: Neuronal cell death test, Trypan blue exclusion assay, F11 cells transformed with SOD1 mutant genes; assay type: cell-based, rat/mouse hybrid cell; conditions: for effect of kinase inhibitor on neuroprotective effect of ADNF: 100 nM ADNF, 10 nM wortmannin, 100 μM genistein, 50 μM PD98059, 20 μM SB203580, 1 μM AG490, 5 μM KN93, 10 μM HA1004, 72 hours
Method: F11 cell, the hybrid cell of rat embryonic day 13 (E13) primary cultured neuronal cell with mouse neuroblastoma NTG18 cell, was cultured in Ham's F-12 medium (Life Technologies, Gaithersburg, Md.) containing 18% FBS (Hyclone, Logan, Utah) and antibiotics as previously reported (Platika D, et al., 1985, Proc Natl Acad Sci USA 82: 3499-3503; Yamatsuji T, et al., 1996, Science 272: 1349-1352; Huang P, et al., 2000, Mol Hum Reprod 6: 1069-1078; and Niikura T, et al., 2001, J Neuroscience, 21: 1902-1910).
The F11 cells (7×10^4 cells/well, 6-well plate, 12- to 16-hour culture in Ham's F-12 (18% PBS) medium) were transformed with wild-type or SOD1 mutant (A4T, G85R, and G93R) genes by lipofection (0.5 μg of each SOD1 gene; 1 μl of LipofectAMINE; 2 μl of PLUS Reagent) under serum-free conditions for 3 hours and cultured for 2 hours in Ham's F-12 (18% PBS) medium. The medium was replaced by Ham's F-12 (10% PBS) in the presence or absence of ADNF. After 72 hours of the transformation, cell mortality was measured by Trypan blue exclusion assay as previously reported (Hashimoto Y, et al., 2001, J Neurosci 21: 9235-9245; and Hashimoto Y, et al, 2001, Proc Natl Acad Sci USA 98: 6336-6341). […]
Intracellular signaling by ADNF was examined. F11 cells were transformed with pEF-BOS or SOD1 mutant (A4T-SOD1, G85R-SOD1, or G93R-SOD1) cDNA and reacted with 10 nM wortmannin (PI3 kinase inhibitor), 100 μM genistein (tyrosine kinase inhibitor), 50 μM PD98059 (MEK inhibitor), 20 μM SB203580 (p38 MAPK inhibitor), 1 μM AG490 (JAK kinase inhibitor), 5 μM KN93 (calcium/calmodulin-dependent kinase inhibitor), or 10 μM HA1004 (protein kinase A inhibitor) in the presence or absence of 100 nM ADNF. After 72 hours of the transformation, cell mortality was measured by Trypan blue exclusion assay.
The effect of KN93 on the neuroprotective action of ADNF was examined. […] After 72 hours of the transformation, cell mortality was measured by Trypan blue exclusion assay. […]

[2] = test system: SOD1 proteins; assay: Immunoblot analysis of SOD1 protein expression in transformed cells; assay type: cell-based, mouse and rat/mouse hybrid; conditions: KN93 or KN92 treatment; F11 cells
Method: Immunoblot analysis was conducted according to the previous report (Hashimoto Y, et al., supra, p. 6336-6341). To examine the protein expression of wild-type or SOD1 mutant genes, lysates from the cells transfected with each SOD1 gene were subjected to SDS-PAGE (20 μg/lane). After electrical blotting to a PVDF membrane, the membrane was blocked by a typical method and reacted with an anti-SOD1 antibody and then with a 1:5000-diluted horseradish peroxidase-conjugated anti-mouse IgG antibody (Bio-Rad Lab. Hercules, Calif., USA). The antibody-reactive bands were detected by ECL (Amersham Pharmacia Biotech, Uppsala, Sweden).

[3] = test system: F11 cells transformed with SOD1 mutant (A4T-SOD1, G85R-SOD1, G93R-SOD1) genes; assay: Neuronal cell death test, Trypan blue exclusion assay, F11 cells transformed with SOD1 mutant genes; assay type: cell-based, rat/mouse hybrid cell; conditions: 10 pM ADNF8, 72 hours
[4] = test system: neuronal cell death caused by amyloid β; conditions: cited from earlier work
[5] = test system: neuronal cell death induced by SOD1 mutant genes; conditions: Hashimoto et al.; cited from earlier work

## N#C/C(=C/c1ccc(O)c(O)c1)C(=O)NCc1ccccc1 [AG490]
[1]
  effect of kinase inhibitor on neuroprotective effect of ADNF: not affected

## NC(N)=NCCNS(=O)(=O)c1cccc2cnccc12 [HA1004]
[1]
  effect of kinase inhibitor on neuroprotective effect of ADNF: not affected

## COc1ccc(S(=O)(=O)Nc2ccccc2CN(C)C/C=C/c2ccc(Cl)cc2)cc1 [KN92]
[1]; 5 μM KN92, 100 fM ADNF
  influence on ADNF activity: did not influence ADNF activity
[2]
  protein expression of SOD1 mutant detected by immunoblot: not affected

## COc1ccc(S(=O)(=O)N(CCO)c2ccccc2CN(C)C/C=C/c2ccc(Cl)cc2)cc1 [KN93]
[1]; 50 nM KN93, 100 fM ADNF
  inhibition of neuroprotective action of ADNF: partially inhibited
[1]
  effect of kinase inhibitor on neuroprotective effect of ADNF: inhibited
[1]; 1 μM KN93, 100 fM ADNF
  inhibition of neuroprotective action of ADNF: almost completely inhibited
[1]; KN93 at any of the concentrations (10 nM to 5 μM)
  influence on cell mortality at the control level: no influence
[2]
  protein expression of SOD1 mutant detected by immunoblot: not affected

## COc1cccc(-c2cc(=O)c3ccccc3o2)c1N [PD98059]
[1]
  effect of kinase inhibitor on neuroprotective effect of ADNF: not affected

## C[S+]([O-])c1ccc(-c2nc(-c3ccncc3)c(-c3ccc(F)cc3)[nH]2)cc1 (stereo not shown) [SB203580]
[1]
  effect of kinase inhibitor on neuroprotective effect of ADNF: not affected

## O=c1c(-c2ccc(O)cc2)coc2cc(O)cc(O)c12 [genistein]
[1]
  effect of kinase inhibitor on neuroprotective effect of ADNF: inhibited

## ALLRSIPA [ADNF8, ADNF which lost one N-terminal amino acid residue]
[1]; inhibition of neuronal cell death caused by SOD1 mutant genes
  effectiveness relative to ADNF (fold less): 100 fold
[3]
  inhibition of cell death caused by G93R-SOD1: completely inhibited cell death
[4]; Brenneman et al. 1998
  effect against neuronal cell death caused by amyloid β or TTX: totally ineffective

## IPALDSLKPANEDQKIGIEI [IPAL peptide]
[1]; 10 μM IPAL peptide
  influence on cell death caused by SOD1 mutant genes: did not influence the cell death caused by the SOD1 mutant genes
[1]; 10 μM IPAL peptide itself, pEF-BOS
  influence on cell death at the control level: did not influence the cell death at the control level
[1]; 10 μM IPAL peptide, 100 fM ADNF, 72 hours
  effect on inhibitory activity of ADNF against cell death caused by SOD1 mutant genes: did not inhibit the inhibitory activity of ADNF
[4]; Zamostiano et al. 1999
  effect on protective effect of ADNF on cell death induced by amyloid β: inhibit the protective effect of ADNF

## S14G Humanin (MAPRGFSCLLLLTGEIDLPVKRRA; Humanin; UniProt Q8IVG9 1-24, looked up, variant S14G) [HNG, comparison peptide reported to prevent Alzheimer's disease-associated neuronal cell death]
[1]; 10 nM HNG, A4T-, G85R-, G93R-SOD1, 72 hours
  cell mortality induced by SOD1 mutant genes: could not reduce the cell death induced by the SOD1 mutant genes
[4]; Hashimoto et al.
  neuronal cell death caused by some Alzheimer's disease-associated disorders: prevent neuronal cell death
[5]
  neuronal cell death induced by SOD1 mutant genes: fail to prevent neuronal cell death
